# Data from patent US7585859B2, “PDE4B inhibitors and uses therefor” (Plexxikon, Inc., priority 2004, dated 2009).
# Like-named read-outs stand apart in the source and are kept apart here.
# How the values were obtained:
# [1] = target: T1, full-length human PDE4D5 isozyme (Homo sapiens, UniProt Q08499); experiment: PDE4 IC50 determination by Scintillation Proximity Assay, PDE4D5; assay type: biochemical
# T1 construct: The full-length human PDE4D5 isozyme; His6 (N); TEV cleavage site (N); made in house; host or cells: baculovirus infected insect cells (unpurified lysate)
# T1 sequence (Q08499 1-745 isoform Q08499-6): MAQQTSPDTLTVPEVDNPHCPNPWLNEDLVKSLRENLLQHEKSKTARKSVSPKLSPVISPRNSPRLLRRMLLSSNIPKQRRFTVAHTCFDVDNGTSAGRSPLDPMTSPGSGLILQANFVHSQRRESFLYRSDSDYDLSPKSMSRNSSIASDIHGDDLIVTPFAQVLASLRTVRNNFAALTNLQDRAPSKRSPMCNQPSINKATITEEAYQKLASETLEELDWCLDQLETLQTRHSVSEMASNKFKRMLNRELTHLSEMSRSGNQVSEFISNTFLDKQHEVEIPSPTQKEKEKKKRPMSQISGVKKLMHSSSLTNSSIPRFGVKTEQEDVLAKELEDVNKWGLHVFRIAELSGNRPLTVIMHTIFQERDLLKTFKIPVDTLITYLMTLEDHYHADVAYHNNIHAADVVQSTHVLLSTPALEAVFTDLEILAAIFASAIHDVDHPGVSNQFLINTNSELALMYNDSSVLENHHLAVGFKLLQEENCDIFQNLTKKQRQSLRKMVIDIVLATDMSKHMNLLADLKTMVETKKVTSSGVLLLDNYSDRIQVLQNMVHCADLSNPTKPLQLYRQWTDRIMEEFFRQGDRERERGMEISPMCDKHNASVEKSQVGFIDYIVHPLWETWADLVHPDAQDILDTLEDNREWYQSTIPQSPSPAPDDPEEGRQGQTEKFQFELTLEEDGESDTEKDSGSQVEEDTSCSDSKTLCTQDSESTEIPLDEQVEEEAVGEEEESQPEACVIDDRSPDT
# How it was run: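 Unpurified His6-tagged full-length human PDE4D5 from baculovirus-infected insect cell lysate, 0.083 μl glycerol stock/ml, hydrolysed [3H]cAMP in Tris pH 7.5/MgCl/EGTA buffer, 30 min at 30°. ZnSO4/SPA beads stop; [3H]AMP counted. Controls: DMSO and roflumilast; 11-point duplicate curves, nonlinear-regression IC50.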
# [2] = test system: TNFα levels in serum of LPS-challenged rats; experiment: Rat inhibition studies: serum TNFα after iv LPS challenge; assay type: in vivo; details: read-out: % inhibition r TNFα; for inhibition in vivo at 100 mg/kg: 100 mg/kg po
# Procedure: All studies were done with male rats CD (SD) IGS BR (Crl) (Charles River, France), which were grouped in to 5 animal groups.
# At the end of the acclimatization period, the non-fasted rats were weighed, individually identified on the tail with a permanent marker and administered by oral (po) or interperitoneal (ip) route with either vehicle, reference or test compound in a volume of 10 mL/kg adapted to the body weight. The animals were gathered in groups of 5 animals in a polystyrene labeled cage with sawdust covered floors. 2-hours after vehicle, reference or test substance administration, rats received an intravenous (iv) injection of 0.1 mg/kg LPS in a volume of 1 mL/kg of body weight. 2 h after LPS challenge (or as indicated in Tables 3B and 4B), blood samples were collected into tubes without anticoagulant by retro-orbital puncture under gas (isoflurane) anesthesia. Samples were allowed to clot at room temperature for 5 to 10 min then put on ice until there were prepared by centrifugation (6000×g for 3 min at 4° C.) and stored at −20° C. until use. TNFα levels were measured in serum samples in duplicate by ELISA technique according to the manufacturer's procedure (Rat TNFα kit Quantikine M (RTA00, R&D System, France)). Data are reported as percent decrease in observed TNFα levels versus TNFa levels observed for vehicle dosed animal groups.
# [3] = target: T2, PDE4B: The catalytic domain of human PDE4B from S152-S528 (Homo sapiens, UniProt Q07343); experiment: PDE4 IC50 determination by Scintillation Proximity Assay, PDE4B; assay type: biochemical
# T2 construct: His6 (N); thrombin cleavage site (N); made in house; host or cells: E. coli
# T2 sequence (Q07343 with tags, fused parts or gaps): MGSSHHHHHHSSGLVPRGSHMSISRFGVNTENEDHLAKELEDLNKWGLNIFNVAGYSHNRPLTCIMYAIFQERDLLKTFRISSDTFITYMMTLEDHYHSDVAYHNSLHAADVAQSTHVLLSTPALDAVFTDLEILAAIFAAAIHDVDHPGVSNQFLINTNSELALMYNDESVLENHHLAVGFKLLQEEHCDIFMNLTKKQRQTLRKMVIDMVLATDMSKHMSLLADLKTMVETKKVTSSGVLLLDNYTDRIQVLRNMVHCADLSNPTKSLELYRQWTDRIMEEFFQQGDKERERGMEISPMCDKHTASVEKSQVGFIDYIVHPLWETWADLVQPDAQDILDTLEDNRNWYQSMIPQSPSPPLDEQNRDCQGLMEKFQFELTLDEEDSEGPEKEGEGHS
# How it was run: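 Scintillation counts reflected [^3H]AMP captured on yttrium silicate SPA beads after enzyme hydrolysed [^3H]cAMP for 30 min at 30°. PDE4B was used at 80 ng/ml and PDE4D at 4 ng/ml. IC50 values came from non-linear regression.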
# [4] = Table 1B, Formula I compounds, read-out: IC50 PDE4D5
# [5] = po, 2 h, rat in vivo inhibition assay, 2 hr challenge delay
# [6] = Table 1B, Formula I compounds, read-out: IC50 PDE4B
# [7] = 2 h, rat, po, 2 hr challenge delay
# [8] = po, 2 h, rat in vivo, 2 hr challenge delay, percent decrease in TNFα versus vehicle
# [9] = second part of Table 2B (2-23 to 2-103), column 3, column is PDE4B in first part, read-out: IC 50 vs. indicated assay h TNFα
smiles,measurement,setting,value
"N#Cc1c(Nc2ccccc2)sc(C(=O)C2CC2)c1N [Compound 1-28, 4-Amino-5-cyclopropanecarbonyl-2-phenylamino-thiophene-3-carbonitrile]",IC50,[1]; [4],< 10 µM
same,inhibition in vivo at 100 mg/kg,[2]; [5],< 20%
same,IC50,[3]; [6],< 10 µM
COc1ccc(C(=O)c2sc(Nc3ccccc3)c(C#N)c2N)cc1 [Compound 1-31],IC50,[1]; [4],< 10 µM
same,inhibition in vivo at 200 mg,"[2]; 1 h, rat, 200 mg, po, 1 hr challenge delay",< 20%
same,inhibition in vivo at 100 mg/kg,[2]; [5],> 20%
same,IC50,[3]; [6],< 10 µM
"CCOC(=O)c1c(NC2CCCC2)sc(C(=O)c2ccc(OC)cc2)c1N [Compound 1-191, 4-Amino-2-cyclopentylamino-5-(4-methoxy-benzoyl)-thiophene-3-carboxylic acid ethyl ester]",IC50,[1]; [4],< 10 µM
same,inhibition in vivo at 50 mg,[2]; [7],< 20%
same,IC50,[3]; [6],< 10 µM
"N#Cc1c(Nc2ccccc2)sc(C(=O)c2cc(-c3ccccc3)no2)c1N [Compound 1-192, 4-Amino-2-phenylamino-5-(3-phenyl-isoxazole-5-carbonyl)-thiophene-3-carbonitrile]",IC50,[1]; [4],< 10 µM
same,inhibition in vivo at 50 mg,[2]; [7],< 20%
same,IC50,[3]; [6],< 10 µM
"CC(C)Nc1sc(C(=O)c2cc(-c3ccccc3)no2)c(N)c1C#N [Compound 1-205, 4-Amino-2-isopropylamino-5-(3-phenyl-isoxazole-5-carbonyl)-thiophene-3-carbonitrile]",inhibition in vivo at 100 mg/kg,[2]; [5],< 20%
same,IC50,[3]; [6],< 10 µM
"CC(C)Nc1sc(C(=O)c2cc(-c3ccc(Cl)cc3)no2)c(N)c1C#N [Compound 1-212, 4-Amino-5-[3-(4-chloro-phenyl)-isoxazole-5-carbonyl]-2-isopropylamino-thiophene-3-carbonitrile]",IC50,[1]; [4],> 10 µM
same,inhibition in vivo at 90 mg,"[2]; 2 h, rat, 90 mg, po, 2 hr challenge delay",> 20%
same,IC50,[3]; [6],< 10 µM
"CC(C)CNc1sc(C(=O)c2cc(-c3ccccc3)no2)c(N)c1C(N)=O [Compound 1-236, 4-Amino-2-isobutylamino-5-(3-phenyl-isoxazole-5-carbonyl)-thiophene-3-carboxylic acid amide]",IC50,[1]; [4],< 10 µM
same,inhibition in vivo at 50 mg,"[2]; 2 h, rat, ip, 2 hr challenge delay",> 20%
same,inhibition in vivo at 50 mg,[2]; [7],> 20%
same,IC50,[3]; [6],< 10 µM
"NC(=O)c1c(NC2CCCC2)sc(C(=O)c2cc(-c3ccccc3)no2)c1N [Compound 1-251, 4-Amino-2-cyclopentylamino-5-(3-phenyl-isoxazole-5-carbonyl)-thiophene-3-carboxylic acid amide]",IC50,[1]; [4],< 10 µM
same,inhibition in vivo at 50 mg,[2]; [7],> 20%
same,IC50,[3]; [6],< 10 µM
"Nc1nc(Nc2ccccc2F)sc1C(=O)c1cc(-c2ccccc2)no1 [Compound 2-6, [4-Amino-2-(2-fluoro-phenylamino)-thiazol-5-yl]-(3-phenyl-isoxazol-5-yl)-methanone]",IC50,"[1]; first part of Table 2B (2-1 to 2-22), read-out: IC 50 vs. indicated assay PDE4D5",< 10 µM
same,inhibition in vivo at 100 mg/kg,[2]; [8],> 20%
same,IC50,"[3]; first part of Table 2B (2-1 to 2-22), read-out: IC 50 vs. indicated assay PDE4B",< 10 µM
"Nc1nc(Nc2ccc(Cl)cc2)sc1C(=O)c1cccc(C(F)(F)F)c1 [Compound 2-23, [4-Amino-2-(4-chloro-phenylamino)-thiazol-5-yl]-(3-trifluoromethyl-phenyl)-methanone]",inhibition in vivo at 100 mg/kg,[2]; [8],< 20%
same,IC50,[3]; [9],< 10 µM
"Nc1nc(NC2CCCC2)sc1C(=O)c1cccc(Cl)c1 [Compound 2-80, (4-Amino-2-cyclopentylamino-thiazol-5-yl)-(3-chloro-phenyl)-methanone]",inhibition in vivo at 100 mg/kg,[2]; [8],> 20%
same,IC50,[3]; [9],< 10 µM
